Reference: US20150284380A1, “NOVEL HETEROCYCLIC COMPOUNDS AS PEST CONTROL AGENTS” (BAYER CROPSCIENCE AG, priority 2012, published 2015)
Where two headings read alike, the source gives them in different places.

Legend:
[1] = test system: green peach aphid (Myzus persicae); assay: Myzus persicae spray test; assay type: in vivo; details: foliar, 144 h, read-out: efficacy in % (aphids killed)
Method: Myzus persicae—Spray Test
Solvent: 78 parts by weight of acetone • • 1.5 parts by weight of dimethylformamide
Emulsifier: 0.5 parts by weight of alkylaryl polyglycol ether
To produce a suitable active compound formulation, 1 part by weight of active compound is mixed with the stated amounts of solvent and emulsifier, and the concentrate is diluted with emulsifier-containing water to the desired concentration.
Discs of Chinese cabbage leaves (Brassica pekinensis) infested by all stages of the green peach aphid (Myzus persicae) are sprayed with an active compound formulation of the desired concentration.
After 6 days, the efficacy in % is determined. 100% means that all the aphids have been killed; 0% means that none of the aphids have been killed.

[2] = logP by HPLC-MS (HCOOH or neutral)
[3] = application rate 500 g/ha, spray on infested Chinese cabbage leaf discs, after 6 days
[4] = HCOOH (formic acid), logP (HCOOH), HPLC-MS, HCOOH
[5] = logP (neutral), HPLC-MS, neutral

| Compound | chromatographic logP [2, 4] | pest or weed control at 500 g/ha [1, 3] | further results |
| --- | --- | --- | --- |
| c1cnc(-c2cccc(-c3cnn(-c4cnsc4)c3)n2)nc1 [Example 2, 2-{6-[1-(isothiazol-4-yl)-1H-pyrazol-4-yl]pyridin-2-yl}pyrimidine] | 1.65 | – | chromatographic logP [2, 5]: 1.64 |
| c1cnc(-c2cccc(-c3cnn(-c4ccnnc4)c3)n2)nc1 [Example 5] | 1.23 | 90% | – |
| c1cnc(-c2cccc(-c3cnn(-c4cnccn4)c3)n2)nc1 [Example 6] | 1.65 | 100% | – |
| Cn1cc(-n2cc(-c3cccc(-c4ncccn4)n3)cn2)cn1 [Example 7] | 1.37 | 100% | – |
| Cn1cc(-c2ncc(-c3cccc(-c4ncccn4)n3)s2)cn1 [Example 8, 2-{6-[2-(1-Methyl-1H-pyrazol-4-yl)-1,3-thiazol-5-yl]pyridin-2-yl}pyrimidine] | – | 100% | chromatographic logP [2, 5]: 1.56 |
| c1cnc(-c2cccc(-c3cnc(-c4cn[nH]c4)s3)n2)nc1 [Example 9, 2-{6-[2-(1H-Pyrazol-4-yl)-1,3-thiazol-5-yl]pyridin-2-yl}pyrimidine] | – | – | pest or weed control at 500 g/ha ([1]; in Brassica rapa): 90%; chromatographic logP [2]: 1.35 |

Now from value to compound, other results behind:

| chromatographic logP [2, 4] | Compound | pest or weed control at 500 g/ha [1, 3] | further results |
| --- | --- | --- | --- |
| 1.76 | c1cnc(-c2cccc(-c3cnc(-c4cncs4)s3)n2)nc1 [Example 1, 5-[6-(Pyrimidin-2-yl)pyridin-2-yl]-2,5′-bi-1,3-thiazole] | 80% | logP (HCOOH) ([2]; HPLC-MS, HCOOH): 1.74 |
| 1.37 | c1cnc(-c2cccc(-c3cnc(-c4ccnnc4)s3)n2)nc1 [Example 3, 4-{5-[6-(Pyrimidin-2-yl)pyridin-2-yl]-1,3-thiazol-2-yl}pyridazine] | 90% | chromatographic logP ([2]; neutral, logP (neutral), HPLC-MS): 1.4 |
| 1.36 | CS(=O)(=O)NC(=O)c1cccc(-c2cnc(-c3ccnnc3)s2)n1 [Example 4] | 100% | – |
| 1.91 | c1cnc(-c2cccc(-c3cnc(-c4cnsc4)s3)n2)nc1 [Example 10] | – | – |
| 3.13 | FC(F)(F)c1cccc(-c2cnc(-c3cnsc3)s2)n1 [Example 11] | 90% | – |
| 1.9 | CS(=O)(=O)NC(=O)c1cccc(-c2cnc(-c3cnsc3)s2)n1 [Example 12] | 90% | – |
